Data taken from ChEMBL document CHEMBL1773059, “NMS-P937, a 4,5-dihydro-1H-pyrazolo[4,3-h]quinazoline derivative as potent and selective Polo-like kinase 1 inhibitor” (Bioorg Med Chem Lett, 2011).
Converted amounts (≈) assume the structure as drawn. The source made the active and inactive calls. The calls are words filed in the database; no cut-off is given here.

Tests used:
[1] = molecular target: Serine/threonine-protein kinase PLK2 (Homo sapiens, UniProt Q9NYY3); assay: Inhibition of PLK2 assessed as [33P]gamma-ATP incorporation into substrate after 60 mins by gamma counting
Serine/threonine-protein kinase PLK2, sequence (Q9NYY3 whole entry): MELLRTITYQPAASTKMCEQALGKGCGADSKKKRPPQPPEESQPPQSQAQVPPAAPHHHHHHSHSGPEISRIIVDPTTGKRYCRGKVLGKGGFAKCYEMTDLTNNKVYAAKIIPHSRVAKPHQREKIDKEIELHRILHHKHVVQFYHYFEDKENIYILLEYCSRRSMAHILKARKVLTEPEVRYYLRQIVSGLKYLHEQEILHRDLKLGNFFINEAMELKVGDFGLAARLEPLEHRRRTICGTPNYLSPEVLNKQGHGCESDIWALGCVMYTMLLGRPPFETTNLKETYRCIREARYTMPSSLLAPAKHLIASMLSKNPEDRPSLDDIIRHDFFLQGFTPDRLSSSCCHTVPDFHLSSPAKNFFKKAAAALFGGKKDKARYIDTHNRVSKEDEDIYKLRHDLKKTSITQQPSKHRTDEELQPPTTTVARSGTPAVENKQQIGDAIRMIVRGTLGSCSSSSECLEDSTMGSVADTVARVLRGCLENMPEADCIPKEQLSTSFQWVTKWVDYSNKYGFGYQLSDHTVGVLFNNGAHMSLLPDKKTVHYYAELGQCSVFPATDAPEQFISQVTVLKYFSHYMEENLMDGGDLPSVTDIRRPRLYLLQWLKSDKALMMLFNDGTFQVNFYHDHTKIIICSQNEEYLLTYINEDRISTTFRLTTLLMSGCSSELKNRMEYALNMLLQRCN

[2] = Solubility of compound at pH 7; type: physicochemical; settings: buffer
A2780 = assay: Antiproliferative activity against human A2780 cells
[3] = molecular target: Serine/threonine-protein kinase PLK3 (Homo sapiens, UniProt Q9H4B4); assay: Inhibition of PLK3 assessed as [33P]gamma-ATP incorporation into substrate after 60 mins by gamma counting
Serine/threonine-protein kinase PLK3, sequence (Q9H4B4 whole entry): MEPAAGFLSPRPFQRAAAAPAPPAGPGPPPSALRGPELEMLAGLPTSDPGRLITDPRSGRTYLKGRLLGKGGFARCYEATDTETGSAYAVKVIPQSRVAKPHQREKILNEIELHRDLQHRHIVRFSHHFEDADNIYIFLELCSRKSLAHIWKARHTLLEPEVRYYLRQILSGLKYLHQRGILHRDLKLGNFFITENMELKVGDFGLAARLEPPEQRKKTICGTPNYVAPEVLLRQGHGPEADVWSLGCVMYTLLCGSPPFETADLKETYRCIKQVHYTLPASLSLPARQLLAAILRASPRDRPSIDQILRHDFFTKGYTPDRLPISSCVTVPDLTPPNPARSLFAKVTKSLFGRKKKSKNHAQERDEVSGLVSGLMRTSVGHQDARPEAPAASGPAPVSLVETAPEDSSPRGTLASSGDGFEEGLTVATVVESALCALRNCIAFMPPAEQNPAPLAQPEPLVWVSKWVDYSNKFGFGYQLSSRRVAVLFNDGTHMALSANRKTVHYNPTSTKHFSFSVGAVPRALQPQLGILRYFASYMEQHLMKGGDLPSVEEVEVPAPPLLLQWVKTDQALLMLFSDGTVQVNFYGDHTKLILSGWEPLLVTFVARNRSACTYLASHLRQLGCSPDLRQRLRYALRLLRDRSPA

[4] = molecular target: Serine/threonine-protein kinase PLK1 (Homo sapiens, UniProt P53350); assay: Inhibition of PLK1 assessed as [33P]gamma-ATP incorporation into substrate after 60 mins by gamma counting
Serine/threonine-protein kinase PLK1, sequence (P53350 whole entry): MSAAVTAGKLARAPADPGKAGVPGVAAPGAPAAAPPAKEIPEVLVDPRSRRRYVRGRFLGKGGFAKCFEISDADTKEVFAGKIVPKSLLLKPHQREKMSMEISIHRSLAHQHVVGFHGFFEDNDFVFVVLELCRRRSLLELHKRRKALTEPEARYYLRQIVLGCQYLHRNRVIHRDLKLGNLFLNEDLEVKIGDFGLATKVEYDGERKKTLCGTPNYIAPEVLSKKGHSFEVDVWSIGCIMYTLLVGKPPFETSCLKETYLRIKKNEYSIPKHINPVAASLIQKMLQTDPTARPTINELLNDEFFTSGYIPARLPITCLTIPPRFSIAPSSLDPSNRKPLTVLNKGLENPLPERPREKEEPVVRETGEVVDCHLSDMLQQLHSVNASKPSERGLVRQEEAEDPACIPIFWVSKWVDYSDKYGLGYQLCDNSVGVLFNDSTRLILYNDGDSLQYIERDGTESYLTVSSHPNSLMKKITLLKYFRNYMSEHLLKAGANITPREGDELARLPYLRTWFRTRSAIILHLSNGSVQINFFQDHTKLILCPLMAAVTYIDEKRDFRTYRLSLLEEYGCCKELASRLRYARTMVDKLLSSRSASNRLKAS

[5] = Apparent permeability of the compound by PAMPA assay; type: ADME
[6] = Cmax in overnight fasted CD1 nu/nu mouse at 10 mg/kg, po; type: ADME, organism-based; set-up: dose 10 mg/kg, route oral; settings: in vivo
[7] = Volume of distribution at steady state in overnight fasted CD1 nu/nu mouse at 10 mg/kg, iv; type: ADME, organism-based; set-up: dose 10 mg/kg, route intravenous; settings: in vivo, read-out: Vdss
[8] = Oral bioavailability in overnight fasted CD1 nu/nu mouse at 10 mg/kg; type: ADME, organism-based; settings: in vivo
[9] = Half life in overnight fasted CD1 nu/nu mouse at 10 mg/kg, po; type: ADME, organism-based; set-up: dose 10 mg/kg, route oral; settings: in vivo
[10] = AUC (infinity) in overnight fasted CD1 nu/nu mouse at 10 mg/kg, iv; type: ADME, organism-based; set-up: time infinity, dose 10 mg/kg, route intravenous; settings: plasma
[11] = Clearance in overnight fasted CD1 nu/nu mouse at 10 mg/kg, iv; type: ADME, organism-based; set-up: dose 10 mg/kg, route intravenous; settings: in vivo
[12] = Half life in overnight fasted CD1 nu/nu mouse at 10 mg/kg, iv; type: ADME, organism-based; set-up: dose 10 mg/kg, route intravenous; settings: in vivo
[13] = AUC (infinity) in overnight fasted CD1 nu/nu mouse at 10 mg/kg, po; type: ADME, organism-based; set-up: time infinity, dose 10 mg/kg, route oral; settings: plasma
CAL-51 = assay: Cell cycle arrest in human CAL51 cells at 0.1 to 1 uM after 24 hrs by flow cytometry; type: functional, cell-based
HCT-116 = assay: Antitumor activity against human HCT116 cells xenografted in CD1 nu/nu mouse assessed as tumor growth inhibition at 90 mg/kg, po once daily administered on days 1 to 2 daily in weekly scheduling for 4 cycles measured on day 18; settings: HCT-116, po, 432 h, read-out: TGI
Mus musculus [14] = assay: Toxicity in CD1 nu/nu mouse xenografted with human HCT116 cells assessed as reversible body weight loss at 30 mg/kg, iv BID administered on days 1 to 2 in weekly scheduling for 3 cycles measured on day 30; type: organism-based, HCT-116; set-up: dose 30 mg/kg, route intravenous; settings: in vivo
Mus musculus [15] = assay: Toxicity in CD1 nu/nu mouse xenografted with human HCT116 cells assessed as reversible body weight loss at 90 mg/kg, po once daily administered on days 1 to 2 in weekly scheduling for 4 cycles measured on day 15; settings: in vivo
[16] = Intrinsic clearance in rat hepatocytes at 1 uM; type: ADME, cell-based, Liver, Hepatocyte
Caco-2 = assay: Apparent permeability of the compound across human Caco2 cells; type: ADME, cell-based
[17] = Intrinsic clearance in human liver microsomes at 1 uM; type: ADME, Microsome
[18] = Solubility of compound in 10% Tween 80; type: physicochemical

Row | IC50 [1] | solubility [2] | IC50 (A2780) | IC50 [3] | IC50 [4] | Compound | further results
1 | > 10000 nM | 121 µM (≈ 64.4 µg/mL) | 598 nM | – | – | CN1CCN(c2ccc(OC(F)(F)F)c(Nc3ncc4c(n3)-c3c(c(C(N)=O)nn3C)CC4)c2)[C@@H](CO)C1 | –
2 | > 10000 nM | 202 µM (≈ 107 µg/mL) | 1310 nM | > 10000 nM | 33 nM | CN1CCN(c2ccc(OC(F)(F)F)c(Nc3ncc4c(n3)-c3c(c(C(N)=O)nn3CCN)CC4)c2)CC1 | Papp [5]: 5 ×10⁻⁶ cm/s
3 | 1490 nM | 166 µM (≈ 88.4 µg/mL) | 1620 nM | – | – | CN1CCN(c2ccc(OC(F)(F)F)c(Nc3ncc4c(n3)-c3c(c(C(N)=O)nn3C)CC4)c2)[C@H](CO)C1 | –
4 | > 10000 nM | 35 µM (≈ 21.6 µg/mL) | – | – | – | CN1CCN(c2ccc(OC(F)(F)F)c(Nc3ncc4c(n3)-c3c(c(C(N)=O)nn3CCOC3CCCCO3)CC4)c2)CC1 (stereo not given) | –
5 | > 10000 nM | 186 µM (≈ 101 µg/mL) | 846 nM | > 10000 nM | 52 nM | CN1CCN(c2ccc(OC(F)(F)F)c(Nc3ncc4c(n3)-c3c(c(C(N)=O)nn3CCCN)CC4)c2)CC1 | Papp [5]: 4 ×10⁻⁶ cm/s
6 | 1450 nM | 79 µM (≈ 40.8 µg/mL) | 348 nM | – | – | Cn1nc(C(N)=O)c2c1-c1nc(Nc3cc(NC(=O)[C@@H]4CCCN4)ccc3OC(F)(F)F)ncc1CC2 | –
7 | > 10000 nM | 200 µM (≈ 115 µg/mL) | 2500 nM | > 10000 nM | 279 nM | CN(C)CCCn1nc(C(N)=O)c2c1-c1nc(Nc3cc(N4CCN(C)CC4)ccc3OC(F)(F)F)ncc1CC2 | –
8 | > 10000 nM | 162 µM (≈ 86.3 µg/mL) | 1140 nM | > 10000 nM | 60 nM | CCN(CC)CCN(C)c1ccc(OC(F)(F)F)c(Nc2ncc3c(n2)-c2c(c(C(N)=O)nn2C)CC3)c1 | –
9 | 1360 nM | 186 µM (≈ 104 µg/mL) | 1640 nM | – | – | CN1CCN(CCCNc2ccc(OC(F)(F)F)c(Nc3ncc4c(n3)-c3c(c(C(N)=O)nn3C)CC4)c2)CC1 | –
10 | – | – | – | – | – | CN1CCN(c2ccc(OC(F)(F)F)c(Nc3ncc4c(n3)-c3c(c(C(N)=O)nn3CCO)CC4)c2)CC1.Cl | Cmax [6]: 640 nM; Vd [7]: 1.71 L/kg; bioavailability [8]: 24%; half-life [9]: 1.6 h; AUC(0-inf) [10]: 8.57 µM·h; clearance [11]: 39.3 mL/min/kg; half-life [12]: 0.89 h; AUC(0-inf) [13]: 2.04 µM·h
11 | – | – | – | – | – | CN1CCN(c2ccc(OC(F)(F)F)c(Nc3ncc4c(n3)-c3c(c(C(N)=O)nn3CCO)CC4)c2)CC1 | Activity (CAL-51): Active
12 | – | – | – | – | – | CN1CCN(c2ccc(OC(F)(F)F)c(Nc3ncc4c(n3)-c3c(c(C(N)=O)nn3C)CC4)c2)CC1 | inhibition in vivo at 90 mg/kg (HCT-116): 59%; Activity (Mus musculus [14]): 14%; Activity (Mus musculus [15]): 14%; CLint scaled at 1 µM [16]: 600 mL/min/kg; Papp (Caco-2): permeable
13 | > 10000 nM | 203 µM (≈ 102 µg/mL) | – | > 10000 nM | 6 nM | CN1CCC(c2ccc(OC(F)(F)F)c(Nc3ncc4c(n3)-c3c(c(C(N)=O)nn3C)CC4)c2)CC1 | Papp [5]: 36.8 ×10⁻⁶ cm/s; CLint scaled at 1 µM [17]: 15.9 mL/min/kg; CLint scaled at 1 µM [16]: 603 mL/min/kg; Papp (Caco-2): permeable; solubility [18]: 3800 µg/mL (≈ 7.58 mM)
14 | 2250 nM | 148 µM (≈ 73.9 µg/mL) | 34 nM | – | – | CN1CC=C(c2ccc(OC(F)(F)F)c(Nc3ncc4c(n3)-c3c(c(C(N)=O)nn3C)CC4)c2)CC1 | Papp [5]: 46.4 ×10⁻⁶ cm/s; CLint scaled at 1 µM [17]: 24.5 mL/min/kg; CLint scaled at 1 µM [16]: 638 mL/min/kg; Papp (Caco-2): permeable; solubility [18]: 3700 µg/mL (≈ 7.41 mM)
15 | 1500 nM | 33 µM (≈ 18 µg/mL) | 1350 nM | – | – | CN1CCC(C(=O)Nc2ccc(OC(F)(F)F)c(Nc3ncc4c(n3)-c3c(c(C(N)=O)nn3C)CC4)c2)CC1 | –
